Columns and labels:
Assay in all cases: fluorogenic peptidase assay
Assay type in all cases: biochemical
[1] = molecular target: T1, ecClpXP (Escherichia coli, UniProt P0A6G7+P0A6H1); settings: substrate Suc-LY-AMC; competitive
[2] = molecular target: T2, bsClpYQ (Bacillus subtilis, UniProt P39070+P39778); settings: substrate Cbz-GGL-AMC, ATP present; competitive
T2 sequence (P39070 2-181): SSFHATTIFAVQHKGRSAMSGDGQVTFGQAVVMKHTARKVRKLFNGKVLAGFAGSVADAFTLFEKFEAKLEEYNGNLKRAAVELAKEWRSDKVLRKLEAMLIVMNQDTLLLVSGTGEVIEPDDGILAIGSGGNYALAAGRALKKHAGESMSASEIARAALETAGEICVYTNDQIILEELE
T2 sequence (P39778 1-467): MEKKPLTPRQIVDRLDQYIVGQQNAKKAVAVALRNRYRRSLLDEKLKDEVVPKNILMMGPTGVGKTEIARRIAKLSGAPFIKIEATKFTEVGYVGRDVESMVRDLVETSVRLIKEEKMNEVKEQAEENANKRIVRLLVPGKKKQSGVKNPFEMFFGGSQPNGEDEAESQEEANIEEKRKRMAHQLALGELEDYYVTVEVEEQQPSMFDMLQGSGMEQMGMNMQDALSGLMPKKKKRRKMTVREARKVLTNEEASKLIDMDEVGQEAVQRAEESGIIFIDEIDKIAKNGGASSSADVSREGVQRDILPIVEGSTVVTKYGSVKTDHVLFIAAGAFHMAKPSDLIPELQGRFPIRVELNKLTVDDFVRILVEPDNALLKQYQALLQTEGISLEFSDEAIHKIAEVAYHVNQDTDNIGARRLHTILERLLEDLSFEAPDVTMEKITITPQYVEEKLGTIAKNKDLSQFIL

[3] = molecular target: T1, ecClpXP; settings: 0.1 mM Suc-LY-AMC; competitive
[4] = molecular target: T3, ecClpP (Escherichia coli, UniProt P0A6G7)
[5] = molecular target: T3, ecClpP; remark: listed apart in the source

T1 sequence (P0A6G7 15-207): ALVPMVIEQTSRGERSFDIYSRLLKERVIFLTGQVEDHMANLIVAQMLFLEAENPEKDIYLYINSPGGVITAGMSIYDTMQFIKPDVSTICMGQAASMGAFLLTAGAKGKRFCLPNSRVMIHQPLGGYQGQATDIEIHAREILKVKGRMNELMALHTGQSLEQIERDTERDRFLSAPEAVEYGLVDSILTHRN
T1 sequence (P0A6H1 2-424): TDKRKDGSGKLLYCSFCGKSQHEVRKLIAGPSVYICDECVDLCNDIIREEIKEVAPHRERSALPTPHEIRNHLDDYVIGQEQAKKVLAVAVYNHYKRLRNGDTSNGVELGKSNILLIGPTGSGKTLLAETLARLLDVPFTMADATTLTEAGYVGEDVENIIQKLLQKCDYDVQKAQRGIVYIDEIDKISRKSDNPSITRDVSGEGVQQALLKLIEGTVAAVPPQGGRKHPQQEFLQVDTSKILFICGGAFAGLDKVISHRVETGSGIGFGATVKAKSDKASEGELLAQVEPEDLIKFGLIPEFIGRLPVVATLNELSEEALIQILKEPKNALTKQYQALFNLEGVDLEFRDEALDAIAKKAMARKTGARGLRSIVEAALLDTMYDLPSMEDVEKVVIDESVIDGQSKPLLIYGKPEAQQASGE
T3 sequence (P0A6G7 15-207): as the sequence (P0A6G7 15-207) above

`CCCCCCc1c(O)c(Cl)cc2c1OC1(C2=O)C(Cl)=C(Cl)C(=O)N1C` (racemic) [compound 1, 5-chloro-armeniaspirol A] was tested, and the Ki [1] was 36.7 µM, the Ki [2] was 3.2 µM and the IC50 [3] was 48.6 ± 1 µM. It also gave an IC50 [4] of 61 ± 1 µM and a Ki [5] of 58.8 µM.

From doi:10.1101/685669v2 (biorxiv, 2020)
